Experimental data published in patent US8053475B2, “Preparation of the formaurindikarboxyl acid base and its derivations and use” (Vyzkumny Ustav Zivocisne Vyroby, V.V.I., priority 2007, dated 2011).

Tested on: Cryptosporidium parvum
Test: In vivo model of Tzipori (1998), modified: orally infected baby mice treated for 8 days
Parameters: species or system C57B1/6 baby mice
Conditions: aurintricarboxylic acid 50 and 100 mmol/kg/day orally in 2 equal portions at 12-hr intervals, suckling C57B1/6 mice infected with 100 000 oocysts
Description: In vivo model designed by Tzipori (1998) was used in following modification: Three-day-old, SPF C57B1/6 baby mice (Velaz, Czech Republic) were randomly assigned to groups of 8-9 mice. The baby mice were caged with their mother in sterile microisolators equipped with filter tops under standard conditions. 4-day-old mice were orally infected with 100 000 oocysts and the treatment was initiated at the same time; the daily dose of aurintricarboxylic acid 50 and […] was divided into 2 equal portions and orally administered in 12-hr intervals. A control group received phosphate buffer saline, and paromomycin (100 mg/kg/day) was used as positive control. ATA was prepared fresh before each use by dissolving the drug in aqueous solution of sodium hydroxide or potassium hydroxide at a molar ratio of 1:3 (ATA:NaOH), or in dimethylsulfoxide. […] Intensity of infection was expressed as the number of oocysts in homogenized intestinal tract in the 9th day after infection. The experiment was repeated between 2006 and 2007 and always gave very similar results.
The inihibition aurintricarboxylic acid on experimental Cryptosporidium parvum-infection in suckling C57B16 mice is graphed in FIG. 1.

O=C(O)C1=CC(=C(c2ccc(O)c(C(=O)O)c2)c2ccc(O)c(C(=O)O)c2)C=CC1=O [aurintricarboxylic acid]
tolerability of the treatment (visible signs of toxicity): tolerated without any visible signs of toxicity
